Assays:
[1] = tested on: phosphorylation of RNA Polymerase II (RNAPII) at the Ser2 site in MCF7 cells; assay: MCF7 pSer2 RNAPII MOA assay (immunofluorescence); type: cell-based; settings: Homo sapiens, MCF7, 6 h, 6-hr treatment, read-out: p-Ser 2 RNAPII (IC50)
Protocol: MCF7 pSer2 RNAPII MOA Assay
This is an immunofluorescence assay to determine the effect of CDK9 inhibitors on phosphorylation of RNA Polymerase II (RNAPII) at the Ser2 site in the breast cancer cell line, MCF7. On day one, 2500 MCF7 cells/well were seeded in 30 μl of growth media (RPMI+10% FBS+1% L-Glu+P/S) in 384-well black-wall clear-bottom plates, incubate plates overnight at 37° C. incubator. On the second day, the cells were treated with CDK9 inhibitors (7 point dose response ranging from 3 μM to 0.004 μM) using an ECHO liquid handler (Labcyte). After 6-hr treatment at 37° C. incubator, the cells were fixed with 30 µl/well 7.4% paraformaldehyde for 15 min at room temperature; the cells were washed twice with PBS, then permeabilized with 0.3% Triton X/PBS for 5 min at room temperature. After washing cells with PBS, the cells were incubated with 1:2000 diluted Anti-Ser2 Phospho-RNA pol II antibody (Covance MMS-129R) in 3% FBS/0.1% PBST overnight at 4° C. On the next day, the cells were washed twice with 0.1% PBST, then incubated with 1:1000 diluted Alexa Fluor 488 Goat-anti-mouse antibody (Life Technologies A-11001) and 1:4000 diluted DAPI at room temperature in dark. After one hour incubation, the cells were washed twice with 0.1% PBST, and once with PBS. The plates where sealed and read on an Acumen eX3 microplate cytometer (TTP Labtech) to assess phosphorylation level in each well.

CDK9/CycT1 [2] = target: T1, CDK9/CycT1 (Homo sapiens (Human), UniProt P50750); assay: CDK9 kinase assay, high ATP concentration (5 mM ATP); type: biochemical; settings: 1.5 nM CDK9, read-out: CDK9 High ATP conc. (IC50)
Protocol: (§1) Activity of CDK9 was determined in-vitro using a mobility shift assay on a Caliper LC3000 reader (Caliper/PerkinElmer), which measures fluorescence of a phosphorylated and unphosphorylated fluorescent peptide substrate and calculates a ratiometric value to determine percent turnover. Phosphorylation of the peptide in the presence and absence of the compound of interest was determined. Enzyme/substrate/adenosine triphosphate (ATP) mix (3 nM CDK9/CycT1, 6 μM ATP, 1.5 μM CDK9 peptide substrate (FITC-X-GSRTPMY-NH2 (X: epsilon aminocaproic acid)), 50 mM HEPES (pH7.2), 1 mM dithiothreitol, 0.01% tween 20, 50 μg/mL bovine serum albumin, (final assay concentration)) (5 μl) was preincubated with 2 μl of compound for 15 minutes at 25° C. Reactions were initiated with 5 μl of 24 mM MgCl2 (10 mM final assay concentration) in buffer (50 mM HEPES (pH7.2), 1 mM dithiothreitol, 0.01% tween 20, 50 μg/mL bovine serum albumin, (final assay concentration) and incubated at 25° C. for 90 minutes and reactions were stopped by addition of 5 μl of Stop mix consisting of 65 mM HEPES (pH7.2), 35.5 mM EDTA, 0.227% Coatin Reagent 3 (Caliper/PerkinElmer), and 0.003% Tween. Phosphorylated and unphosphorylated substrate was detected by a Caliper LC3000 reader (Caliper/PerkinElmer) in the presence of separation buffer consisting of 100 mM HEPES (pH7.2), 15.8 mM EDTA, 0.1% Coatin Reagent 3 (Caliper/PerkinElmer), 0.015% Brij-35, 5% DMSO, and 5.6 mM MgCl2. CDK9 enzyme was acquired from Carna Biosciences (Catalogue number 04-110), the CDK9 peptide substrate was acquired from Intonation (Boston, Mass.; Custom-made).
High ATP assays were run the same way with the following modifications: the final assay concentration of CDK9 was 1.5 nM and the final assay concentration of ATP was 5 mM.

CDK9/CycT1 [3] = target: T1, CDK9/CycT1; assay: CDK9 kinase assay, ATP concentration at Km (mobility shift, Caliper LC3000); type: biochemical; settings: 6 μM ATP, 3 nM CDK9/CycT1; read-out: CDK9 ATP conc. at Km (IC50)
Protocol: as §1

MV411 cells = assay: MV411 caspase activity assay (Caspase-Glo 3/7); type: cell-based; settings: Homo sapiens, MV4-11, 6 h, 6-hr treatment, caspase 3/7 induction
Protocol: MV411 Caspase Activity Assay
This is a cell assay to measure the induction of caspase activity in the acute myeloid leukemia cell line, MV411 after 6-hr treatment with CDK9 inhibitors. On the first day, 3000 MV411 cells/well were seeded in 50 μl of growth media (IMDM+10% FBS+2% L-Glu+P/S) in 384-well white plates, incubate plates in 37° C. incubator overnight. […] After 6 hour incubation in 37° C. incubator, 25 μl of Caspase-Glo 3/7 reagent (Promega) per well was added into each well, and plates were incubated at room temperature for 30 min in dark. The plates were read on an Infinite M200 microplate reader (Tecan) with a 100 ms integration time.

T1 sequence (P50750 whole entry): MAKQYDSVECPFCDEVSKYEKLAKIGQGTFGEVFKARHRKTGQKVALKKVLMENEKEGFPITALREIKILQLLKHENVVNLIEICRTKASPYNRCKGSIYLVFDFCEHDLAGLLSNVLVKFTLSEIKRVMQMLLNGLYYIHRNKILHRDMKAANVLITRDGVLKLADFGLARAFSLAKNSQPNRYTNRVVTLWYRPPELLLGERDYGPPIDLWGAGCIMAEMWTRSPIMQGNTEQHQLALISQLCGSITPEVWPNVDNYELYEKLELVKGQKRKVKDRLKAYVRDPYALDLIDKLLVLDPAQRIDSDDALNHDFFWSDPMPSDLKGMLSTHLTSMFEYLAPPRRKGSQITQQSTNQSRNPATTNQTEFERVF
T1 sequence (O60563 whole entry partner): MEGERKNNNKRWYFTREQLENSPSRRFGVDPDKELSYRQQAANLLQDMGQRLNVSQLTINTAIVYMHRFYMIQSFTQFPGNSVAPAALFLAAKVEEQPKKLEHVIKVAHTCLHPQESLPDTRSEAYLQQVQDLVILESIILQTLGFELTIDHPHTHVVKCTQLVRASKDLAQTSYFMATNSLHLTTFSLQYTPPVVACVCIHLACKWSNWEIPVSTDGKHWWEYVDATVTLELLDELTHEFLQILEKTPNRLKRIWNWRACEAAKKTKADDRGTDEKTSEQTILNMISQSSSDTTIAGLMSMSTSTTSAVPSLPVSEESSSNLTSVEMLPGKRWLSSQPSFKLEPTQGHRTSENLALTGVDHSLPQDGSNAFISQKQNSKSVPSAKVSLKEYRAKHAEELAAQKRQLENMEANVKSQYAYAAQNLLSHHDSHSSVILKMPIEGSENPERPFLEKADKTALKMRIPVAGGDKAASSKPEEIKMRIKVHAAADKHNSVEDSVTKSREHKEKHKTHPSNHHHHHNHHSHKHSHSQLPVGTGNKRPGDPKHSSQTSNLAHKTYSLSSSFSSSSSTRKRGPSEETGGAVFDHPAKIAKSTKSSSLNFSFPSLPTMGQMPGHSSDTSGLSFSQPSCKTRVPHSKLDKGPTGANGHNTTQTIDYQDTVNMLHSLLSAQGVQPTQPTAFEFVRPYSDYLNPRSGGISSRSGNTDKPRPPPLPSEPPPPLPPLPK

SMILES	IC50 [1]	IC50 (CDK9/CycT1 [2])	IC50 (CDK9/CycT1 [3])	IC50 (MV411 cells)
CC(=O)N[C@@H]1CCC[C@@H](C(=O)Nc2cc(-c3cnn4c3CC(C)(C)C4)c(F)cn2)C1 (single isomer, unassigned) [Example 83]	61 nM	25 nM	< 3 nM	73 nM
CC(=O)N[C@@H]1CCC[C@H](C(=O)Nc2cc(-c3cnn4c3CC(C)(C)C4)ncn2)C1 [Example 30, (1S,3R)-3-acetamido-N-(6-(5,5-dimethyl-5,6-dihydro-4H-pyrrolo[1,2-b]pyrazol-3-yl)pyrimidin-4-yl)cyclohexanecarboxamide]	1240 nM	606 nM	7 nM	1050 nM
CC(=O)N[C@H]1CCC[C@@H](C(=O)Nc2cc(-c3cnn4c3CC(C)(C)C4)c(F)cn2)C1 [Example 81, (1R,3S)-3-acetamido-N-(4-(5,5-dimethyl-5,6-dihydro-4H-pyrrolo[1,2-b]pyrazol-3-yl)-5-fluoropyridin-2-yl)cyclohexanecarboxamide]	665 nM	554 nM	8 nM	896 nM
O=C(Nc1cc(-c2cnc3n2CCCC3)c(Cl)cn1)[C@@H]1CCCNC1 [Example 1, (R)—N-(5-chloro-4-(5,6,7,8-tetrahydroimidazo[1,2-a]pyridin-3-yl)pyridin-2-yl)piperidine-3-carboxamide]	1540 nM	4500 nM	49.1 nM	1780 nM
COC1CCn2ncc(-c3cc(NC(=O)[C@H]4CCC[C@@H](NC(C)=O)C4)ncc3Cl)c2C1 (single isomer, unassigned) [Example 72]	360 nM	111 nM	3 nM	400 nM
CC(=O)N[C@@H]1CCC[C@H](C(=O)Nc2cc(-c3cnn4c3CCCC4)ncn2)C1 [Example 28, (1S,3R)-3-acetamido-N-(6-(4,5,6,7-tetrahydropyrazolo[1,5-a]pyridin-3-yl)pyrimidin-4-yl)cyclohexanecarboxamide]	> 3000 nM	4710 nM	36 nM	6600 nM

These reach a lower IC50 [1]. Values come first.

IC50 [1]	IC50 (CDK9/CycT1 [2])	IC50 (CDK9/CycT1 [3])	IC50 (MV411 cells)	SMILES
12 nM	< 4 nM	< 3 nM	8 nM	CC1(C)Cc2c(-c3cc(NC(=O)[C@H]4CCC[C@@H](NC(=O)[C@@H]5CCCO5)C4)ncc3Cl)cnn2C1 [Example 45, (S)—N-((1R,3S)-3-((5-chloro-4-(5,5-dimethyl-5,6-dihydro-4H-pyrrolo[1,2-b]pyrazol-3-yl)pyridin-2-yl)carbamoyl)cyclohexyl)tetrahydrofuran-2-carboxamide]
< 7 nM	< 3 nM	< 3 nM	13 nM	CC1(C)Cc2c(-c3cc(NC(=O)[C@H]4CCC[C@@H](NC(=O)C5(O)CC5)C4)ncc3Cl)cnn2C1 [Example 21, (1S,3R)—N-(5-chloro-4-(5,5-dimethyl-5,6-dihydro-4H-pyrrolo[1,2-b]pyrazol-3-yl)pyridin-2-yl)-3-(1-hydroxycyclopropanecarboxamido)cyclohexanecarboxamide]
12 nM	< 3 nM	< 3 nM	13 nM	CC1(C)Cc2c(-c3cc(NC(=O)[C@H]4CCC[C@@H](NC(=O)[C@H]5C[C@@H](O)C5)C4)ncc3Cl)cnn2C1 [Example 53, (1S,3R)—N-(5-chloro-4-(5,5-dimethyl-5,6-dihydro-4H-pyrrolo[1,2-b]pyrazol-3-yl)pyridin-2-yl)-3-(cis-3-hydroxycyclobutanecarboxamido)cyclohexanecarboxamide]
10 nM	< 3 nM	< 3 nM	14 nM	C[C@H](O)C(=O)N[C@@H]1CCC[C@H](C(=O)Nc2cc(-c3cnn4c3CC(C)(C)C4)c(Cl)cn2)C1 [Example 20, (1S,3R)—N-(5-chloro-4-(5,5-dimethyl-5,6-dihydro-4H-pyrrolo[1,2-b]pyrazol-3-yl)pyridin-2-yl)-3-((S)-2-hydroxypropanamido)cyclohexanecarboxamide]

Reference: US10717746B2, “Chemical compounds” (ASTRAZENECA AB, priority 2015, dated 2020)
